Laboratory results as given in US10370343B2, “[6,6] Fused bicyclic HDAC8 inhibitors” (FORMA Therapeutics, Inc., priority 2015, dated 2019).
pIC50: −log10 of the molar value.

Each compound was assayed against T1, Recombinant N-terminal GST tag full-length human HDAC8 (Homo sapiens, UniProt Q9BY41) (assay: HDAC8 probe binding assay, time resolved fluorescence (TRF) format). Conditions: compounds grouped by IC50 range (Table 2).
T1 construct: Recombinant N-terminal GST tag full-length human HDAC8; purchased SignalChem H90-30G-1000; host or cells: baculovirus in Sf9 insect cells
T1 sequence (Q9BY41 1-377): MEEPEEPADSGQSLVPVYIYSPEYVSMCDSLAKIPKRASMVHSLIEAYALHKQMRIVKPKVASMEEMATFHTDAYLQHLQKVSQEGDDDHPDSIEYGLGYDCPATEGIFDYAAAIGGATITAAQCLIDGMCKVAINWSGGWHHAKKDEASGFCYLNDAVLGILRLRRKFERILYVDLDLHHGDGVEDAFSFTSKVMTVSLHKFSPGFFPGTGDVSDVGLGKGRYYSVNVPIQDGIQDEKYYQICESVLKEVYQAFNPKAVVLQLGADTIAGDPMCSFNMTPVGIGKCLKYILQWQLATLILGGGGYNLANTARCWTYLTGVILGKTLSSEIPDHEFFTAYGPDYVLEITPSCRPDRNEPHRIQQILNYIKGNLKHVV
Protocol: The HDAC8 probe binding assay was performed using a time resolved fluorescence (TRF) assay format. Recombinant N-terminal GST tag full-length human HDAC8 was expressed and purified from baculovirus in Sf9 insect cells (SignalChem, #[…]-1000). […] Plates were incubated for 16 hours at room temperature before time resolved fluorescence was read on the Envision (Excitation at 340 nm, and Emission at 485 nm and 535 nm, Perkin Elmer). Data from HDAC8 Assays were reported as percent inhibition (inh) compared with control wells based on the following equation: % inh=1-((FLU-AveLow)/(AveHigh-AveLow)) where FLU=measured time resolved fluorescence. AveLow=average time resolved fluorescence of no enzyme control (n=32). AveHigh=average time resolved fluorescence of DMSO control (n=32). IC50 values were determined by curve fitting of the standard 4 parameter logistic fitting algorithm included in the Activity Base software package: IDBS XE Designer Model205. Data is fitted using the Levenburg Marquardt algorithm. Ranges of IC50 values for compounds of the invention are disclosed in Table 2: Table 2. provides the compounds arranged according to […] determined in a time resolved fluorescence (TRF) assay. The compounds are separated into four groups: […]

Row | Structure (SMILES) | pIC50
1 | COc1cnc2sc(CN3C(=O)COc4ccc(C(=O)NO)cc43)nc2c1 [Compound I-208, N-hydroxy-4-((6-methoxythiazolo[5,4-b]pyridin-2-yl)methyl)-3-oxo-3,4-dihydro-2H-benzo[b][1,4]oxazine-6-carboxamide] | ≥ 7.60
2 | O=C(NO)c1ccc2c(c1)N(Cc1nc3cc(Cl)cnc3s1)C(=O)CO2 [Compound I-209, 4-((6-chlorothiazolo[5,4-b]pyridin-2-yl)methyl)-N-hydroxy-3-oxo-3,4-dihydro-2H-benzo[b][1,4]oxazine-6-carboxamide] | ≥ 7.60
3 | Cc1ccc2nc(CN3C(=O)COc4ccc(C(=O)NO)cc43)sc2n1 [Compound I-210, N-hydroxy-4-((5-methylthiazolo[5,4-b]pyridin-2-yl)methyl)-3-oxo-3,4-dihydro-2H-benzo[b][1,4]oxazine-6-carboxamide] | ≥ 7.60
4 | COc1ccc2nc(CN3C(=O)COc4ccc(C(=O)NO)cc43)sc2n1 [Compound I-211, N-hydroxy-4-((5-methoxythiazolo[5,4-b]pyridin-2-yl)methyl)-3-oxo-3,4-dihydro-2H-benzo[b][1,4]oxazine-6-carboxamide] | ≥ 7.60
5 | O=C(NO)c1ccc2c(c1)N(Cc1nc3ccc(C(F)(F)F)nc3s1)C(=O)CO2 [Compound I-212, N-hydroxy-3-oxo-4-((5-(trifluoromethyl)thiazolo [5,4-b]pyridin-2-yl)methyl)-3,4-dihydro-2H-benzo[b][1,4]oxazine-6-carboxamide] | 7.00 to 7.60
6 | O=C(NO)c1ccc2c(c1)N(Cc1ccncc1)C(=O)CO2 [Compound I-215, N-hydroxy-3-oxo-4-(pyridin-4-ylmethyl)-3,4-dihydro-2H-benzo[b][1,4]oxazine-6-carboxamide] | 7.00 to 7.60
7 | O=C(NO)c1ccc2c(c1)N(Cc1cccc(Oc3ccccc3)c1)C(=O)CO2 [Compound I-220, N-hydroxy-3-oxo-4-(3-phenoxybenzyl)-3,4-dihydro-2H-benzo[b][1,4]oxazine-6-carboxamide] | ≥ 7.60
8 | CC1(C)Oc2ccc(C(=O)NO)cc2N(Cc2cccc(Oc3ccccc3)c2)C1=O [Compound I-225, N-hydroxy-2,2-dimethyl-3-oxo-4-(3-phenoxybenzyl)-3,4-dihydro-2H-benzo[b][1,4]oxazine-6-carboxamide] | 7.00 to 7.60
9 | O=C(NO)c1ccc2c(c1)N(Cc1cccc(Oc3ccc(Cl)cc3)c1)C(=O)CO2 [Compound I-226, 4-(3-(4-chlorophenoxy)benzyl)-N-hydroxy-3-oxo-3,4-dihydro-2H-benzo[b][1,4]oxazine-6-carboxamide] | ≥ 7.60
10 | CC1(C)Oc2ccc(C(=O)NO)cc2N(Cc2cccc(Oc3ccc(Cl)cc3)c2)C1=O [Compound I-227, 4-(3-(4-chlorophenoxy)benzyl)-N-hydroxy-2,2-dimethyl-3-oxo-3,4-dihydro-2H-benzo[b][1,4]oxazine-6-carboxamide] | ≥ 7.60
11 | O=C(NO)c1ccc2c(c1)N(Cc1ccc(Oc3ccccc3)cc1)C(=O)CO2 [Compound I-229, N-hydroxy-3-oxo-4-(4-phenoxybenzyl)-3,4-dihydro-2H-benzo[b][1,4]oxazine-6-carboxamide] | 7.00 to 7.60
12 | O=C(NO)c1ccc2c(c1)N(Cc1cccc3ccccc13)C(=O)CO2 [Compound I-230, N-hydroxy-4-(naphthalen-1-ylmethyl)-3-oxo-3,4-dihydro-2H-benzo[b][1,4]oxazine-6-carboxamide] | 7.00 to 7.60
13 | O=C(NO)c1ccc2c(c1)N(Cc1ccc3ncccc3c1)C(=O)CO2 [Compound I-231, N-hydroxy-3-oxo-4-(quinolin-6-ylmethyl)-3,4-dihydro-2H-benzo[b][1,4]oxazine-6-carboxamide] | ≥ 7.60
14 | O=C(NO)c1ccc2c(c1)N(Cc1ccc3ccccc3n1)C(=O)CO2 [Compound I-232, N-hydroxy-3-oxo-4-(quinolin-2-ylmethyl)-3,4-dihydro-2H-benzo[b][1,4]oxazine-6-carboxamide] | ≥ 7.60
15 | O=C(NO)c1ccc2c(c1)N(Cc1nc3ccc(C(F)(F)F)cc3o1)C(=O)CO2 [Compound I-233, N-hydroxy-3-oxo-4-((6-(trifluoromethyl)benzo[d]oxazol-2-yl)methyl)-3,4-dihydro-2H-benzo[b][1,4]oxazine-6-carboxamide] | ≥ 7.60
16 | O=C(NO)c1ccc2c(c1)N(Cc1nc3cc(C(F)(F)F)ccc3o1)C(=O)CO2 [Compound I-234, N-hydroxy-3-oxo-4-((5-(trifluoromethyl)benzo[d]oxazol-2-yl)methyl)-3,4-dihydro-2H-benzo[b][1,4]oxazine-6-carboxamide] | ≥ 7.60

Row | Structure (SMILES) | pIC50
17 | N#Cc1cccc(CN2C(=O)COc3ccc(C(=O)NO)cc32)c1 [Compound I-236, 4-(3-cyanobenzyl)-N-hydroxy-3-oxo-3,4-dihydro-2H-benzo[b][1,4]oxazine-6-carboxamide] | ≥ 7.60
18 | N#Cc1ccc(CN2C(=O)COc3ccc(C(=O)NO)cc32)cc1 [Compound I-237, 4-(4-cyanobenzyl)-N-hydroxy-3-oxo-3,4-dihydro-2H-benzo[b][1,4]oxazine-6-carboxamide] | ≥ 7.60
19 | Cn1cc2cc(CN3C(=O)COc4ccc(C(=O)NO)cc43)ccc2n1 [Compound I-238, N-hydroxy-4-((2-methyl-2H-indazol-5-yl)methyl)-3-oxo-3,4-dihydro-2H-benzo[b][1,4]oxazine-6-carboxamide] | ≥ 7.60
20 | Cc1nc2ccc(CN3C(=O)COc4ccc(C(=O)NO)cc43)cc2o1 [Compound I-239, N-hydroxy-4-((2-methylbenzo[d]oxazol-6-yl)methyl)-3-oxo-3,4-dihydro-2H-benzo[b][1,4]oxazine-6-carboxamide] | ≥ 7.60
21 | Cn1cc2ccc(CN3C(=O)COc4ccc(C(=O)NO)cc43)cc2n1 [Compound I-240, N-hydroxy-4-((2-methyl-2H-indazol-6-yl)methyl)-3-oxo-3,4-dihydro-2H-benzo[b][1,4]oxazine-6-carboxamide] | ≥ 7.60
22 | Cc1cc2oc(CN3C(=O)COc4ccc(C(=O)NO)cc43)nc2cc1Cl [Compound I-261, 4-((5-chloro-6-methylbenzo[d]oxazol-2-yl)methyl)-N-hydroxy-3-oxo-3,4-dihydro-2H-benzo[b][1,4]oxazine-6-carboxamide] | ≥ 7.60
23 | O=C(NO)c1ccc2c(c1)N(Cc1ccc(C(F)(F)F)c(F)c1)C(=O)CO2 [Compound I-266, 4-(3-fluoro-4-(trifluoromethyl)benzyl)-N-hydroxy-3-oxo-3,4-dihydro-2H-benzo[b][1,4]oxazine-6-carboxamide] | ≥ 7.60
24 | O=C(NO)c1ccc2c(c1)N(Cc1nc3ccc(Cl)cc3o1)C(=O)CO2 [Compound I-287, 4-((6-chlorobenzo[d]oxazol-2-yl)methyl)-N-hydroxy-3-oxo-3,4-dihydro-2H-benzo[b][1,4]oxazine-6-carboxamide] | ≥ 7.60
25 | O=C(NO)c1ccc2c(c1)N(Cc1nc3ccccc3s1)C(=O)CO2 [Compound I-289, 4-(benzo[d]thiazol-2-ylmethyl)-N-hydroxy-3-oxo-3,4-dihydro-2H-benzo[b][1,4]oxazine-6-carboxamide] | ≥ 7.60
26 | CC1(C)Oc2ccc(C(=O)NO)cc2N(Cc2nc3ccc(F)cc3o2)C1=O [Compound I-291, 4-((6-fluorobenzo[d]oxazol-2-yl)methyl)-N-hydroxy-2,2-dimethyl-3-oxo-3,4-dihydro-2H-benzo[b][1,4]oxazine-6-carboxamide] | ≥ 7.60
27 | CC1(C)Oc2ccc(C(=O)NO)cc2N(Cc2nc3ccc(Cl)cc3o2)C1=O [Compound I-294, 4-((6-chlorobenzo[d]oxazol-2-yl)methyl)-N-hydroxy-2,2-dimethyl-3-oxo-3,4-dihydro-2H-benzo[b][1,4]oxazine-6-carboxamide] | ≥ 7.60
28 | CC1(C)Oc2ccc(C(=O)NO)cc2N(Cc2nc3ccccc3s2)C1=O [Compound I-295, 4-(benzo[d]thiazol-2-ylmethyl)-N-hydroxy-2,2-dimethyl-3-oxo-3,4-dihydro-2H-benzo[b][1,4]oxazine-6-carboxamide] | 7.00 to 7.60
29 | CC1(C)Oc2ccc(C(=O)NO)cc2N(CCCc2ccccc2)C1=O [Compound I-298, N-hydroxy-2,2-dimethyl-3-oxo-4-(3-phenylpropyl)-3,4-dihydro-2H-benzo[b][1,4]oxazine-6-carboxamide] | 7.00 to 7.60
30 | CC1(C)Oc2ccc(C(=O)NO)cc2N(Cc2c(Cl)cccc2Cl)C1=O [Compound I-299, 4-(2,6-dichlorobenzyl)-N-hydroxy-2,2-dimethyl-3-oxo-3,4-dihydro-2H-benzo[b][1,4]oxazine-6-carboxamide] | 7.00 to 7.60
31 | CC1(C)Oc2ccc(C(=O)NO)cc2N(Cc2cccc(C(F)(F)F)c2)C1=O [Compound I-300, N-hydroxy-2,2-dimethyl-3-oxo-4-(3-(trifluoromethyl)benzyl)-3,4-dihydro-2H-benzo[b][1,4]oxazine-6-carboxamide] | 7.00 to 7.60
